Source: the supplement of paper PMC11451515

How the values were obtained:
Settings in all cases: 48 h
[1] = test system: NOMO1; experiment: AUC of viability dose-response curve (% viability x log10 dose units); higher = less sensitive
Summary of the method: (§1)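 Over 48 h at 37°C, leukemia cells in 1536-well plates (500 or 1000 cells/well), adapted to each medium, received library compounds in DMSO at 11 threefold doses from 47 μM to 0.79 nM. CellTiter-Glo One luminescence, normalised per plate to DMSO and cell-free wells, was fitted by a four-parameter log-logistic function of log10 dose. The area under the curve was then integrated by trapezoidal rule, after scaling curves above full viability and removing those that failed quality control.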

[2] = test system: SEM cells; experiment: as above
Summary of the method: as §1

[3] = test system: P12-Ichikawa; experiment: as above
Summary of the method: as §1

[4] = test system: NOMO1; experiment: cell viability relative to DMSO control; higher = less cytotoxic
Summary of the method: (§2)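 Library compounds in DMSO were pin-dosed into 1536-well plates (5 μl) holding NOMO1 or SEM (500 cells/well) or P12-Ichikawa (1000 cells/well) leukemia cells, across an 11-point threefold series of 47 μM to 0.79 nM. Each cell line had been adapted for at least four passages in each medium. CellTiter-Glo One luminescence was read after 48 h at 37°C. Viability is the per-plate percentage relative to DMSO wells, with cell-free wells as background.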

[5] = test system: SEM cells; experiment: as above
Summary of the method: as §2

[6] = test system: P12-Ichikawa; experiment: as above
Summary of the method: as §2

OC(=O)C(CC/1=C/C(=O)NC2=CC=CC=C12)NC(=O)C3=CC=C(Cl)C=C3 (stereo not drawn)
AUC of viability dose-response curve
Settings | [1] | [2] | [3]
HPLM + 10% dialyzed FBS | 469 | 447 | 468
RPMI 5 mM glucose + 10% FBS | 454 | 467 | 436
RPMI 5 mM glucose + 10% dialyzed FBS | 469 | 470 | 465

cell viability [%]
Settings | [4] | [5] | [6]
HPLM + 10% dialyzed FBS, 0.000781 µM | 95.6 | 94.7 | 111
HPLM + 10% dialyzed FBS, 0.00234 µM | 117 | 93.9 | 118
HPLM + 10% dialyzed FBS, 0.00702 µM | 136 | 108 | 120
HPLM + 10% dialyzed FBS, 0.0211 µM | 121 | 106 | 123
HPLM + 10% dialyzed FBS, 0.0632 µM | 130 | 108 | 123
HPLM + 10% dialyzed FBS, 0.19 µM | 121 | 107 | 125
HPLM + 10% dialyzed FBS, 0.569 µM | 131 | 116 | 124
HPLM + 10% dialyzed FBS, 1.71 µM | 122 | 105 | 128
HPLM + 10% dialyzed FBS, 5.12 µM | 131 | 121 | 122
HPLM + 10% dialyzed FBS, 15.4 µM | 136 | 121 | 126
HPLM + 10% dialyzed FBS, 46.1 µM | 110 | 112 | 125
RPMI 5 mM glucose + 10% FBS, 0.000781 µM | 121 | 113 | 109
RPMI 5 mM glucose + 10% FBS, 0.00234 µM | 122 | 109 | 115
RPMI 5 mM glucose + 10% FBS, 0.00702 µM | 121 | 106 | 119
RPMI 5 mM glucose + 10% FBS, 0.0211 µM | 134 | 113 | 117
RPMI 5 mM glucose + 10% FBS, 0.0632 µM | 132 | 133 | 131
RPMI 5 mM glucose + 10% FBS, 0.19 µM | 127 | 112 | 122
RPMI 5 mM glucose + 10% FBS, 0.569 µM | 140 | 116 | 128
RPMI 5 mM glucose + 10% FBS, 1.71 µM | 155 | 112 | 121
RPMI 5 mM glucose + 10% FBS, 5.12 µM | 137 | 121 | 128
RPMI 5 mM glucose + 10% FBS, 15.4 µM | 135 | 126 | 132
RPMI 5 mM glucose + 10% FBS, 46.1 µM | 134 | 104 | 141
RPMI 5 mM glucose + 10% dialyzed FBS, 0.000781 µM | 114 | 120 | 120
RPMI 5 mM glucose + 10% dialyzed FBS, 0.00234 µM | 125 | 105 | 122
RPMI 5 mM glucose + 10% dialyzed FBS, 0.00702 µM | 147 | 126 | 129
RPMI 5 mM glucose + 10% dialyzed FBS, 0.0211 µM | 127 | 130 | 130
RPMI 5 mM glucose + 10% dialyzed FBS, 0.0632 µM | 139 | 118 | 139
RPMI 5 mM glucose + 10% dialyzed FBS, 0.19 µM | 137 | 119 | 135
RPMI 5 mM glucose + 10% dialyzed FBS, 0.569 µM | 136 | 135 | 135
RPMI 5 mM glucose + 10% dialyzed FBS, 1.71 µM | 135 | 117 | 128
RPMI 5 mM glucose + 10% dialyzed FBS, 5.12 µM | 134 | 131 | 130
RPMI 5 mM glucose + 10% dialyzed FBS, 15.4 µM | 132 | 119 | 124
RPMI 5 mM glucose + 10% dialyzed FBS, 46.1 µM | 143 | 120 | 133
